Assay results: USRE40086E1, “Method for treating bacterial infection with novel 7-substituted-9-substituted amino 6-demethyl-6-deoxytetracyclines” (Wyeth Holdings Corporation, priority 1991, dated 2008)
Read-outs that look alike come from different tables or passages of the source.

What was measured:
Assay type in all cases: cell-based
[1] = test system: S. aureus UBMS 88-5 (tetM); assay: MIC, agar dilution; conditions: S. aureus UBMS 88-5 TetM; Table IA; unit assumed
[2] = test system: S. aureus UBMS 88-4 (Sensitive); assay: MIC, agar dilution; conditions: S. aureus UBMS 88-4; Table IA; unit assumed
[3] = test system: S. aureus UBMS 90-1 (tetM); assay: MIC, agar dilution; conditions: S. aureus UBMS 90-1 TetM; Table IA; unit assumed
[4] = test system: S. aureus UBMS 90-2 (tetM); assay: MIC, agar dilution; conditions: S. aureus UBMS 90-2 TetM; Table IA; unit assumed
[5] = test system: S. aureus UBMS 90-3 (Sensitive); assay: MIC, agar dilution; conditions: S. aureus UBMS 90-3; Table IA; unit assumed
[6] = test system: S. aureus UBMS 88-7 (tetK); assay: MIC, agar dilution; conditions: S. aureus UBMS 88-7 TetK; Table IA; unit assumed
[7] = test system: S. aureus IVES 2943 (meth. resistant); assay: MIC, agar dilution; conditions: S. aureus IVES 2943; Table IA; unit assumed
[8] = test system: S. aureus IVES 1983 (meth. resistant); assay: MIC, agar dilution; conditions: S. aureus IVES 1983; Table IA; unit assumed
[9] = test system: S. aureus ATCC 29213 (Sensitive); assay: MIC, agar dilution; conditions: S. aureus ATCC 29213; Table IA; unit assumed
[10] = test system: S. aureus Smith (Sensitive); assay: MIC, agar dilution; conditions: S. aureus SMITH (MP); Table IA; unit assumed
[11] = test system: S. haemolyticus AVAH 88-3; assay: MIC, agar dilution; conditions: S. hemolyticus AVHAH 88-3; Table IA; unit assumed
E. faecalis 12201 = assay: MIC, agar dilution; conditions: Enterococcus 12201; Table IA; unit assumed
E. faecalis ATCC 29212 = assay: MIC, agar dilution; conditions: E. faecalis ATCC 29212; Table IA; unit assumed
E. coli UBMS 88-1 (tetB) = assay: MIC, agar dilution; conditions: E. coli UBMS 88-1 TetB; Table IA; unit assumed
E. coli UBMS 89-1 (tetM) = assay: MIC, agar dilution; conditions: E. coli UBMS 89-1 TetM; Table IA; unit assumed
[12] = test system: E. coli UBMS 89-2 (Sensitive); assay: MIC, agar dilution; conditions: E. coli UBMS 89-2 Tet Sens.; Table IA; unit assumed
E. coli ATCC 25922 = assay: MIC, agar dilution; conditions: E. coli ATCC 25922; Table IA; unit assumed
E. coli UBMS 90-4 (tetM) = assay: MIC, agar dilution; conditions: E. coli UBMS 90-4 TetM; Table IA; unit assumed
E. coli MC4100 Tet sens. = assay: MIC, agar dilution (Table IA); conditions: unit assumed
E. coli MC4100 TetB = assay: MIC, agar dilution (Table IA); conditions: unit assumed
E. coli PRP1 TetA = assay: MIC, agar dilution (Table IA); conditions: unit assumed
E. coli J3272 TetC = assay: MIC, agar dilution (Table IA); conditions: unit assumed
E. coli J2175 = assay: MIC, agar dilution (Table IA); conditions: unit assumed
E. coli BAJ9003 = assay: MIC, agar dilution (Table IA)
E. coli UBMS 90-5 = assay: MIC, agar dilution (Table IA); conditions: unit assumed
E. coli #311 (MP) = assay: MIC, agar dilution (Table IA); conditions: unit assumed
E. coli J3272 TetD = assay: MIC, agar dilution (Table IA); conditions: unit assumed
S. mariescens FDOR 8733 = assay: MIC, agar dilution (Table IA); conditions: unit assumed
[13] = test system: X. maltophilia NEMC 87210; assay: MIC, agar dilution (Table IA); conditions: unit assumed
[14] = test system: Ps. acruginosa ATCC 27853; assay: MIC, agar dilution (Table IA); conditions: unit assumed
S. aureus NEMC 8769/89-4 = assay: MIC, agar dilution (Table IA); conditions: unit assumed
S. aureus ROSE (MP) = assay: MIC, agar dilution (Table IA); conditions: unit assumed

Compound	Antibacterial activity (MIC) [1] [µg/mL]	Antibacterial activity (MIC) [2] [µg/mL]	Antibacterial activity (MIC) [3] [µg/mL]	Antibacterial activity (MIC) [4] [µg/mL]	Antibacterial activity (MIC) [5] [µg/mL]	Antibacterial activity (MIC) [6] [µg/mL]	Antibacterial activity (MIC) [7] [µg/mL]	Antibacterial activity (MIC) [8] [µg/mL]	Antibacterial activity (MIC) [9] [µg/mL]	Antibacterial activity (MIC) [10] [µg/mL]	Antibacterial activity (MIC) [11] [µg/mL]	Antibacterial activity (MIC) (E. faecalis 12201) [µg/mL]	Antibacterial activity (MIC) (E. faecalis ATCC 29212) [µg/mL]	Antibacterial activity (MIC) (E. coli UBMS 88-1 (tetB)) [µg/mL]	Antibacterial activity (MIC) (E. coli UBMS 89-1 (tetM)) [µg/mL]	Antibacterial activity (MIC) [12] [µg/mL]	Antibacterial activity (MIC) (E. coli ATCC 25922) [µg/mL]	Antibacterial activity (MIC) (E. coli UBMS 90-4 (tetM)) [µg/mL]	Antibacterial activity (MIC) (E. coli MC4100 Tet sens.) [µg/mL]	Antibacterial activity (MIC) (E. coli MC4100 TetB) [µg/mL]	further results
CCCCN(C)CC(=O)Nc1cc(N(C)C)c2c(c1O)C(=O)C1=C(O)C3(O)C(=O)C(C(N)=O)=C(O)C(N(C)C)C3CC1C2.Cl.Cl (stereo not drawn) [CCC, [4S-(4alpha,12aalpha)]-9-[[(Butylmethylamino)acetyl]amino]-4,7-Bis(dimethylamino)-1,4,4a,5,5a,6,11,12a-octahydro-3,10-12,12a-tetrahydroxy-1,11-dioxo-2-naphthacenecarboxamide dihydrochloride]	0.5	0.5	1	0.25	0.25	1	1	1	0.5	0.5	0.5	0.25	0.12	1	0.25	2	1	1	0.25	2	Antibacterial activity (MIC) (E. coli PRP1 TetA): 2 µg/mL; Antibacterial activity (MIC) (E. coli J3272 TetC): 1 µg/mL; Antibacterial activity (MIC) (E. coli J2175): 2 µg/mL; Antibacterial activity (MIC) (E. coli BAJ9003; unit assumed): 0.12 µg/mL; Antibacterial activity (MIC) (E. coli UBMS 90-5): 2 µg/mL; Antibacterial activity (MIC) (E. coli #311 (MP)): 1 µg/mL; Antibacterial activity (MIC) (E. coli J3272 TetD): 0.5 µg/mL; Antibacterial activity (MIC) (S. mariescens FDOR 8733): 16 µg/mL; Antibacterial activity (MIC) [13]: 0.25 µg/mL; Antibacterial activity (MIC) [14]: > 32 µg/mL; Antibacterial activity (MIC) (S. aureus NEMC 8769/89-4): 0.12 µg/mL; Antibacterial activity (MIC) (S. aureus ROSE (MP)): 2 µg/mL
CN(C)CC(=O)Nc1cc(N(C)C)c2c(c1O)C(=O)C1=C(O)[C@]3(O)C(=O)C(C(=O)NCN4CCCCC4)=C(O)[C@@H](N(C)C)C3CC1C2 (stereo partly drawn) [HHH, [4S-(4alpha,12aalpha)]-4,7-Bis(dimethylamino)-9-([(dimethylamino)acetyl]amino]-1,4,4a,5,5a,6,11,12a-octahydro-3,10,12,12a-tetrahydroxy-1,11-dioxo-N-(1-piperadinylmethyl)-2-naphthacenecarboxamide]	0.25	0.25	0.25	0.12	0.12	0.5	2	2	0.25	0.12	0.5	0.12	0.06	0.25	0.25	0.25	0.25	0.25	0.12	0.25	Antibacterial activity (MIC) (E. coli PRP1 TetA): 2 µg/mL; Antibacterial activity (MIC) (E. coli J3272 TetC): 0.5 µg/mL; Antibacterial activity (MIC) (E. coli J2175): 0.25 µg/mL; Antibacterial activity (MIC) (E. coli BAJ9003; unit assumed): 0.03 µg/mL; Antibacterial activity (MIC) (E. coli UBMS 90-5): 0.25 µg/mL; Antibacterial activity (MIC) (E. coli #311 (MP)): 0.25 µg/mL; Antibacterial activity (MIC) (E. coli J3272 TetD): 0.12 µg/mL; Antibacterial activity (MIC) (S. mariescens FDOR 8733): 4 µg/mL; Antibacterial activity (MIC) [13]: 0.5 µg/mL; Antibacterial activity (MIC) [14]: 8 µg/mL; Antibacterial activity (MIC) (S. aureus NEMC 8769/89-4): 0.25 µg/mL; Antibacterial activity (MIC) (S. aureus ROSE (MP)): 2 µg/mL
CN(C)CCCC(=O)Nc1cc(N(C)C)c2c(c1O)C(=O)C1=C(O)[C@]3(O)C(=O)C(C(N)=O)=C(O)[C@@H](N(C)C)C3CC1C2.Cl.Cl (stereo partly drawn) [ZZ, [4S-(4alpha,12aalpha)]-4,7-Bis(dimethylamino)-9-[[4-(dimethylamino)-1-oxobutyl]amino]-1,4,4a,5,5a,6,11,12a-octahydro-3,10,12,12a-tetrahydroxy-1,11-dioxo-2-naphthacenecarboxamide dihydrochloride]	8	2	8	4	2	16	> 32	> 32	2	2	8	8	4	> 32	32	16	8	16	2	> 32	Antibacterial activity (MIC) (E. coli PRP1 TetA): > 32 µg/mL; Antibacterial activity (MIC) (E. coli J3272 TetC): 32 µg/mL; Antibacterial activity (MIC) (E. coli J2175): 16 µg/mL; Antibacterial activity (MIC) (E. coli BAJ9003; unit assumed): 1 µg/mL; Antibacterial activity (MIC) (E. coli UBMS 90-5): 16 µg/mL; Antibacterial activity (MIC) (E. coli #311 (MP)): 16 µg/mL; Antibacterial activity (MIC) (E. coli J3272 TetD): 4 µg/mL; Antibacterial activity (MIC) (S. mariescens FDOR 8733): > 32 µg/mL; Antibacterial activity (MIC) [13]: 32 µg/mL; Antibacterial activity (MIC) [14]: > 32 µg/mL; Antibacterial activity (MIC) (S. aureus NEMC 8769/89-4): 1 µg/mL; Antibacterial activity (MIC) (S. aureus ROSE (MP)): > 32 µg/mL
CN(C)CC(=O)Nc1cc(N(C)C)c2c(c1O)C(=O)C1=C(O)[C@]3(O)C(=O)C(C(=O)NCN4CCCC4)=C(O)[C@@H](N(C)C)C3CC1C2 (stereo partly drawn) [FFF, [4S-(4alpha,12aalpha)]-4,7-Bis(dimethylamino)-9-[[(dimethylamino)acetyl]amino]-1,4,4a,5,5a,6,11,12a-octahydro-3,10,12,12a-tetrahydroxy-1,11-dioxo-N-(1-pyrrolidinylmethyl)-2-naphthacenecarboxamide]	0.12	0.12	0.12	0.12	0.12	1	2	2	0.12	0.12	0.25	0.12	0.06	0.25	0.12	0.25	0.12	0.12	0.06	0.25	Antibacterial activity (MIC) (E. coli PRP1 TetA): 2 µg/mL; Antibacterial activity (MIC) (E. coli J3272 TetC): 1 µg/mL; Antibacterial activity (MIC) (E. coli J2175): 0.25 µg/mL; Antibacterial activity (MIC) (E. coli BAJ9003): ≧0.015; Antibacterial activity (MIC) (E. coli UBMS 90-5): 0.25 µg/mL; Antibacterial activity (MIC) (E. coli #311 (MP)): 0.25 µg/mL; Antibacterial activity (MIC) (E. coli J3272 TetD): 0.12 µg/mL; Antibacterial activity (MIC) (S. mariescens FDOR 8733): 4 µg/mL; Antibacterial activity (MIC) [13]: 0.25 µg/mL; Antibacterial activity (MIC) [14]: 8 µg/mL; Antibacterial activity (MIC) (S. aureus NEMC 8769/89-4): 0.25 µg/mL; Antibacterial activity (MIC) (S. aureus ROSE (MP)): 2 µg/mL
